Like-named read-outs stand apart in the source and are kept apart here.
Target: BRAF V600E (Homo sapiens, UniProt P15056, V600E)
Assay: HiBiT cellular BRAF^V600E degradation assay
Format: cell-based
Conditions: for DC50: concentration at which 50% of total cellular BRAF^V600E is degraded; for Emax: read-out: HiBit 24 h Emax
[1] = A375.10 cells, 24 h, residual protein remaining in the cell

Chain of BRAF V600E (P15056 whole entry V600E): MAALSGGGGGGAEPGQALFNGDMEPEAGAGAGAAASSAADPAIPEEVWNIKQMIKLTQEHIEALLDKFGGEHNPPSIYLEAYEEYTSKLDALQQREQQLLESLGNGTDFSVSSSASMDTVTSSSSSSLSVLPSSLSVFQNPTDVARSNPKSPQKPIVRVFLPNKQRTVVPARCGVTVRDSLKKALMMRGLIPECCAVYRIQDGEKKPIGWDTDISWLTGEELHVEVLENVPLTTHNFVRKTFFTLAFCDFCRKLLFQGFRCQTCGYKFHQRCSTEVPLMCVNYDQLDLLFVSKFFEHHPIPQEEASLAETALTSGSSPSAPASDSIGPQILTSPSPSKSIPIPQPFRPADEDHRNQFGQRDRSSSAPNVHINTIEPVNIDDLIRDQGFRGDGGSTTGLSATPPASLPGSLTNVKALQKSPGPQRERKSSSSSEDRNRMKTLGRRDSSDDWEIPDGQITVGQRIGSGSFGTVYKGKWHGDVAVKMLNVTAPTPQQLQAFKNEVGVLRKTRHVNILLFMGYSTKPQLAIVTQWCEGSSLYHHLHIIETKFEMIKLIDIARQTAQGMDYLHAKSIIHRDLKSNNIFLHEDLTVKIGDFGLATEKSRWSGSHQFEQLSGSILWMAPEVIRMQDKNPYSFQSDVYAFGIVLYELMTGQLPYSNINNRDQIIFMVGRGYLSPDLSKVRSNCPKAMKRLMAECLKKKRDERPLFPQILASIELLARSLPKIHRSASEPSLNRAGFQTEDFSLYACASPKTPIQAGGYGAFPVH

SMILES | DC50 (A375.10 cells, 24 h) [nM] | Emax [%] | Emax [1] [%]
N#Cc1c(NS(=O)(=O)C2CCCCC2)ccc(F)c1Oc1ccc2ncn(-c3cnc(N4CCN(C(=O)CN5CCC(c6ccc(N[C@H]7CCC(=O)NC7=O)cc6F)CC5)CC4)nc3)c(=O)c2c1 [Example 105, N-[2-cyano-3-[3-[2-[4-[2-[4-[4-[[(3S)-2,6-dioxopiperidin-3-yl]amino]-2-fluorophenyl]piperidin-1-yl]acetyl]piperazin-1-yl]pyrimidin-5-yl]-4-oxoquinazolin-6-yl]oxy-4-fluorophenyl]cyclohexanesulfonamide] | 17.7 | 11.8 | 
N#Cc1c(NS(=O)(=O)N2CCCCC2)ccc(F)c1Oc1ccc2ncn(-c3cnc(N4CCN(C(=O)CN5CCC(c6ccc(N[C@@H]7CCC(=O)NC7=O)cc6F)CC5)CC4)nc3)c(=O)c2c1 [Example 106, N-[2-cyano-3-[3-[2-[4-[2-[4-[4-[[(3R)-2,6-dioxopiperidin-3-yl]amino]-2-fluorophenyl]piperidin-1-yl]acetyl]piperazin-1-yl]pyrimidin-5-yl]-4-oxoquinazolin-6-yl]oxy-4-fluorophenyl]piperidine-1-sulfonamide] | 43.6 | 16.7 | 
N#Cc1c(NS(=O)(=O)N2CCCC2)ccc(F)c1Oc1ccc2ncn(-c3cnc(N4CCN(C(=O)CN5CCC(c6ccc(N[C@H]7CCC(=O)NC7=O)cc6F)CC5)CC4)nc3)c(=O)c2c1 [Example 107, N-[2-cyano-3-[3-[2-[4-[2-[4-[4-[[(3S)-2,6-dioxopiperidin-3-yl]amino]-2-fluorophenyl]piperidin-1-yl]acetyl]piperazin-1-yl]pyrimidin-5-yl]-4-oxoquinazolin-6-yl]oxy-4-fluorophenyl]pyrrolidine-1-sulfonamide] | 12.9 | 9.8 | 
N#Cc1c(NS(=O)(=O)C2CCCC2)ccc(F)c1Oc1ccc2ncn(-c3cnc(N4CCN(C(=O)CN5CCC(c6ccc(N[C@@H]7CCC(=O)NC7=O)cc6F)CC5)CC4)nc3)c(=O)c2c1 [Example 108, N-[2-cyano-3-[3-[2-[4-[2-[4-[4-[[(3R)-2,6-dioxopiperidin-3-yl]amino]-2-fluorophenyl]piperidin-1-yl]acetyl]piperazin-1-yl]pyrimidin-5-yl]-4-oxoquinazolin-6-yl]oxy-4-fluorophenyl]cyclopentanesulfonamide] | 17.8 |  | 10.9
N#Cc1c(NS(=O)(=O)C2CCCC2)ccc(F)c1Oc1ccc2ncn(-c3cnc(N4CCN(C(=O)CN5CCC(c6ccc(N[C@H]7CCC(=O)NC7=O)cc6F)CC5)CC4)nc3)c(=O)c2c1 [Example 109, N-[2-cyano-3-[3-[2-[4-[2-[4-[4-[[(3S)-2,6-dioxopiperidin-3-yl]amino]-2-fluorophenyl]piperidin-1-yl]acetyl]piperazin-1-yl]pyrimidin-5-yl]-4-oxoquinazolin-6-yl]oxy-4-fluorophenyl]cyclopentanesulfonamide] | 12.5 |  | 9.04
CO[C@H]1CCN(S(=O)(=O)Nc2ccc(F)c(Oc3ccc4ncn(-c5cnc(N6CCN(C(=O)CN7CCC(c8ccc(N[C@@H]9CCC(=O)NC9=O)cc8F)CC7)CC6)nc5)c(=O)c4c3)c2C#N)C1 [Example 110, (3S)—N-[2-cyano-3-[3-[2-[4-[2-[4-[4-[[(3R)-2,6-dioxopiperidin-3-yl]amino]-2-fluorophenyl]piperidin-1-yl]acetyl]piperazin-1-yl]pyrimidin-5-yl]-4-oxoquinazolin-6-yl]oxy-4-fluorophenyl]-3-methoxypyrrolidine-1-sulfonamide] | 42.5 |  | 8.22
CO[C@H]1CCN(S(=O)(=O)Nc2ccc(F)c(Oc3ccc4ncn(-c5cnc(N6CCN(C(=O)CN7CCC(c8ccc(N[C@H]9CCC(=O)NC9=O)cc8F)CC7)CC6)nc5)c(=O)c4c3)c2C#N)C1 [Example 111, (3S)—N-[2-cyano-3-[3-[2-[4-[2-[4-[4-[[(3S)-2,6-dioxopiperidin-3-yl]amino]-2-fluorophenyl]piperidin-1-yl]acetyl]piperazin-1-yl]pyrimidin-5-yl]-4-oxoquinazolin-6-yl]oxy-4-fluorophenyl]-3-methoxypyrrolidine-1-sulfonamide] | 18.6 |  | 10.3
CC(C)S(=O)(=O)Nc1ccc(F)c(Oc2ccc3ncn(-c4cnc(N5CCN(C(=O)CN6CCC(c7ccc(N[C@H]8CCC(=O)NC8=O)cc7F)CC6)CC5)nc4)c(=O)c3c2)c1C#N [Example 112, N-[2-cyano-3-[3-[2-[4-[2-[4-[4-[[(3S)-2,6-dioxopiperidin-3-yl]amino]-2-fluorophenyl]piperidin-1-yl]acetyl]piperazin-1-yl]pyrimidin-5-yl]-4-oxoquinazolin-6-yl]oxy-4-fluorophenyl]propane-2-sulfonamide] | 6.47 |  | 8.79
N#Cc1c(NS(=O)(=O)N2CCCCC2)ccc(F)c1Oc1ccc2ncn(-c3cnc(N4CCN(C(=O)CN5CCC(c6ccc(N[C@H]7CCC(=O)NC7=O)cc6F)CC5)CC4)nc3)c(=O)c2c1 [Example 113, N-[2-cyano-3-[3-[2-[4-[2-[4-[4-[[(3S)-2,6-dioxopiperidin-3-yl]amino]-2-fluorophenyl]piperidin-1-yl]acetyl]piperazin-1-yl]pyrimidin-5-yl]-4-oxoquinazolin-6-yl]oxy-4-fluorophenyl]piperidine-1-sulfonamide] | 29.7 |  | 11.1
N#Cc1c(NS(=O)(=O)C2CC2)ccc(F)c1Oc1ccc2ncn(-c3cnc(N4CCN(C(=O)CN5CCC(c6ccc(N[C@H]7CCC(=O)NC7=O)cc6F)CC5)CC4)nc3)c(=O)c2c1 [Example 114, N-[2-cyano-3-[3-[2-[4-[2-[4-[4-[[(3S)-2,6-dioxopiperidin-3-yl]amino]-2-fluorophenyl]piperidin-1-yl]acetyl]piperazin-1-yl]pyrimidin-5-yl]-4-oxoquinazolin-6-yl]oxy-4-fluorophenyl]cyclopropanesulfonamide] | 8.33 |  | 9.6
N#Cc1c(NS(=O)(=O)C2CC2)ccc(F)c1Oc1ccc2ncn(-c3cnc(N4CCN(C(=O)CN5CCC(c6ccc(N[C@@H]7CCC(=O)NC7=O)cc6F)CC5)CC4)nc3)c(=O)c2c1 [Example 115, N-[2-cyano-3-[3-[2-[4-[2-[4-[4-[[(3R)-2,6-dioxopiperidin-3-yl]amino]-2-fluorophenyl]piperidin-1-yl]acetyl]piperazin-1-yl]pyrimidin-5-yl]-4-oxoquinazolin-6-yl]oxy-4-fluorophenyl]cyclopropanesulfonamide] | 16.1 |  | 12.8
N#Cc1c(NS(=O)(=O)N2CC[C@@H](F)C2)ccc(F)c1Oc1ccc2ncn(-c3cnc(N4CCN(C(=O)CN5CCC(c6ccc(N[C@H]7CCC(=O)NC7=O)cc6F)CC5)CC4)nc3)c(=O)c2c1 [Example 116, (3R)—N-[2-cyano-3-[3-[2-[4-[2-[4-[4-[[(3S)-2,6-dioxopiperidin-3-yl]amino]-2-fluorophenyl]piperidin-1-yl]acetyl]piperazin-1-yl]pyrimidin-5-yl]-4-oxoquinazolin-6-yl]oxy-4-fluorophenyl]-3-fluoropyrrolidine-1-sulfonamide] | 17.1 |  | 9.01
COC1CN(S(=O)(=O)Nc2ccc(F)c(Oc3ccc4ncn(-c5cnc(N6CCN(C(=O)CN7CCC(c8ccc(N[C@H]9CCC(=O)NC9=O)cc8F)CC7)CC6)nc5)c(=O)c4c3)c2C#N)C1 [Example 117, N-[2-cyano-3-[3-[2-[4-[2-[4-[4-[[(3S)-2,6-dioxopiperidin-3-yl]amino]-2-fluorophenyl]piperidin-1-yl]acetyl]piperazin-1-yl]pyrimidin-5-yl]-4-oxoquinazolin-6-yl]oxy-4-fluorophenyl]-3-methoxyazetidine-1-sulfonamide] | 38.3 |  | 9.02
CC(C)S(=O)(=O)Nc1ccc(F)c(Oc2ccc3ncn(-c4cnc(N5CCN(C(=O)CN6CCC(c7ccc(N[C@@H]8CCC(=O)NC8=O)cc7F)CC6)CC5)nc4)c(=O)c3c2)c1C#N [Example 118, N-[2-cyano-3-[3-[2-[4-[2-[4-[4-[[(3R)-2,6-dioxopiperidin-3-yl]amino]-2-fluorophenyl]piperidin-1-yl]acetyl]piperazin-1-yl]pyrimidin-5-yl]-4-oxoquinazolin-6-yl]oxy-4-fluorophenyl]propane-2-sulfonamide] | 18.7 |  | 9.98
CN(CC(F)F)S(=O)(=O)Nc1ccc(F)c(Oc2ccc3ncn(-c4cnc(N5CCN(C(=O)CN6CCC(c7ccc(N[C@@H]8CCC(=O)NC8=O)cc7F)CC6)CC5)nc4)c(=O)c3c2)c1C#N [Example 119, 6-[2-cyano-3-[[2,2-difluoroethyl(methyl)sulfamoyl]amino]-6-fluorophenoxy]-3-[2-[4-[2-[4-[4-[[(3R)-2,6-dioxopiperidin-3-yl]amino]-2-fluorophenyl]piperidin-1-yl]acetyl]piperazin-1-yl]pyrimidin-5-yl]-4-oxoquinazoline] | 46.9 |  | 12.8
CN(CCF)S(=O)(=O)Nc1ccc(F)c(Oc2ccc3ncn(-c4cnc(N5CCN(C(=O)CN6CCC(c7ccc(N[C@@H]8CCC(=O)NC8=O)cc7F)CC6)CC5)nc4)c(=O)c3c2)c1C#N [Example 120, 6-[2-cyano-6-fluoro-3-[[2-fluoroethyl(methyl)sulfamoyl]amino]phenoxy]-3-[2-[4-[2-[4-[4-[[(3R)-2,6-dioxopiperidin-3-yl]amino]-2-fluorophenyl]piperidin-1-yl]acetyl]piperazin-1-yl]pyrimidin-5-yl]-4-oxoquinazoline] | 13.8 |  | 11.6
CN(CCF)S(=O)(=O)Nc1ccc(F)c(Oc2ccc3ncn(-c4cnc(N5CCN(C(=O)CN6CCC(c7ccc(N[C@H]8CCC(=O)NC8=O)cc7F)CC6)CC5)nc4)c(=O)c3c2)c1C#N [Example 121, 6-[2-cyano-6-fluoro-3-[[2-fluoroethyl(methyl)sulfamoyl]amino]phenoxy]-3-[2-[4-[2-[4-[4-[[(3S)-2,6-dioxopiperidin-3-yl]amino]-2-fluorophenyl]piperidin-1-yl]acetyl]piperazin-1-yl]pyrimidin-5-yl]-4-oxoquinazoline] | 14.6 |  | 7.8

Reference: patent US12486253B2, “Therapeutics for the degradation of mutant BRAF” (C4 THERAPEUTICS, INC., priority 2021, dated 2025)
